Results on 1 compound are retold here after patent US11116759B2, “Method of treating cancer” (Exelixis, Inc., priority 2011, dated 2021).

For data set [1], the system named is melanoma, including ocular melanoma. Nature of the data set: Phase 2 randomized discontinuation trial in adults with melanoma (NCT00940225). The data set is classed as in vivo, human. On the procedure:
Compound 1 was used in a Phase 2 randomized discontinuation trial study of adults with melanoma, including ocular melanoma (See NCT00940225, Abstract 371). Compound 1 was administered at a daily dose of 100 mg (125 mg salt equivalent). The study endpoints included objective response rate (ORR) per mRECIST in the lead-in stage, and progression-free survival in the randomized stage. The eligibility criteria included: (a) pathologically and radiologically confirmed diagnosis of advanced melanoma; (b) cutaneous, mucosal, or ocular subtypes; (c) up to two lines of prior systemic treatment (not including immunotherapy); (d) documented progressive disease and measurable target lesion(s) per mRECIST; and (e) no known brain metastases. Tumors were assessed by CT/MRI at baseline and every 6 weeks thereafter. Archival tumor tissue was retained for genotyping and biomarker analysis.

For the next data set, the system named is xenograft tumor models. Nature of the data set: Xenograft tumor models. Type of data set: in vivo.
Data set [2] deals with endothelial cells and tumor cells. The data set is described as follows: Apoptosis of endothelial cells and tumor cells. The data set is classed as cell-based.
Data set [3] in a line: Phase 1 clinical study, tolerability. The note with it: most common adverse events fatigue, diarrhea, anorexia, rash, palmar-plantar erythrodysesthesia. Type of data set: in vivo.
The test system of data set [4] is pancreatic neuroendocrine tumor. Nature of the data set: Murine pancreatic neuroendocrine tumor model. Type of data set: in vivo.

Regarding `COc1cc2nccc(Oc3ccc(NC(=O)C4(C(=O)Nc5ccc(F)cc5)CC4)cc3)c2cc1OC` [Compound 1, N-(4-{[6,7-bis(methyloxy)quinolin-4-yl]oxy}phenyl)-N′-(4-fluorophenyl)cyclopropane-1,1-dicarboxamide], in data set [1] (all enrolled patients with melanoma, daily dose of 100 mg), the “Patients with objective tumor shrinkage” value is on record as “sixty”. Besides, the Best response entry in data set [1] (ocular melanoma Patients 5, 6, 14, 15, 18, 20, 22, 26, 28 and 29 (FIGS. 4A and 4B)) was “stable disease”. In addition, the “Patients with evidence of objective tumor regression” value in data set [1] (patients with ocular cancer, six months) worked out at 48%. In data set [1] (patients with ocular cancer, week 12), the Disease control rate came to 14%. In data set [1] (patients with ocular melanoma who were tested (FIG. 3)), the “Patients showing a positive disease control rate” value is given as “Eight of the fourteen”. Further, the Partial response observed result in data set [1] (patients with ocular melanoma, week 6) is “One”. Moreover, the Effect on tumor entry in the data set with xenograft tumor models is “causes tumor regression”. Also, the Induction of apoptosis entry in data set [2] was “rapidly induces apoptosis”. Also, the Tolerability result in data set [3] was “generally well-tolerated”. In data set [4], the Overall survival entry is recorded as “substantially improves overall survival”; the “Tumor invasiveness and metastasis” value was “significantly reduces tumor invasiveness and metastasis”.
